Results: US5753516A, “Screening method for ligands of the EBI-1 receptor” (priority 1995, dated 1998)

Columns and labels:
NALM 6 cells = assay: Migration (chemotaxis) of NALM 6 pre-B ALL cells; format: cell-based, human; conditions: for cell migration (cell counts): NALM 6, peptide 100 nM, spontaneous locomotion 2190; for concentration inducing migration: NALM 6 and LAZ 221; for effect on migration of pre-B ALL cells: NALM 6 and LAZ 221 cells
LAZ 221 cells = assay: Migration (chemotaxis) of LAZ 221 pre-B ALL cells; format: cell-based, human; conditions: LAZ 221, peptide 100 nM; spontaneous locomotion 1886
Jurkat cells [1] = test system: Jurkat cells
human T cells [2] = conditions: Heagy et al., 1990; cited from earlier work
LAZ 388 cells = assay: Migration (chemotaxis) of LAZ 388 EBV-transformed B cells; format: cell-based, human; conditions: LAZ 388, peptide 100 nM; spontaneous locomotion 1938
COS (Vector Control) = assay: cAMP accumulation in COS cells (vector control); format: cell-based, monkey; conditions: COS (Vector Control); MET-ENK 0.01 nM, naloxone 10 μM, forskolin 0.1 μM; controls 40.2 and 38.8
EBI1 = target: T1, EBI1 (Homo sapiens, UniProt P32248)
T1 sequence (P32248 25-378): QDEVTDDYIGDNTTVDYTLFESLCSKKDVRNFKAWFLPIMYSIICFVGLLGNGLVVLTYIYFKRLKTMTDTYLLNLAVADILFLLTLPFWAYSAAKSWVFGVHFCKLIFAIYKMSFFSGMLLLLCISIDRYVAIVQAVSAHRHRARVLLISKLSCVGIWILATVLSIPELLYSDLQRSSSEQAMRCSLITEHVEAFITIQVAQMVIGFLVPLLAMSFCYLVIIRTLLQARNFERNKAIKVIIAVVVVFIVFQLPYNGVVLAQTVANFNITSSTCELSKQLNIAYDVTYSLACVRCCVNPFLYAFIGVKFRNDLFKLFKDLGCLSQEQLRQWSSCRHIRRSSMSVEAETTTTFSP

human T cells [3] = assay: Migration of human peripheral blood T cells; format: cell-based
[4] = test system: lymphocytes and macrophages; conditions: animals; cited from earlier work
leukocytes = conditions: Lu et al., 1960; cited from earlier work
Jurkat cells [5] = assay: [Ca^2+ ]i response of Jurkat cells (Indo-1, flow cytometry); format: cell-based, human
Protocol: FIG. 14, Panel A and B. Methionine enkephalin and opiate receptor agonists selective for […] stimulate transmembrane signaling in Jurkat cells. Cells were labeled with Indo-1, washed twice in serum-free medium and held at 4° C. until analyzed. Indo-1 fluorescence was measured using flow cytometry as previously described (Heagy et al., 1992; Ledbetter et al., 1987; Chang et al., 1989; Rabinovitch et al., 1986). The fluorescence for nonstimulated cells (measured in medium, alone) was arbitrarily set at 1.0. Data are presented as per cent increase in the response [(r-baseline) x 100%]. Baseline [Ca^2+ ]i value measured for Jurkat cells (n=4) was 80±40 nM. Baseline Panel A, Jurkat cell response to MET-ENK (0.1 nM, 10 nM and 1 μM) and to the d- selective agonist Dermenkephalin (10 nM). Panel B, Jurkat cell response to the d- selective agonist (D-Pen ^2,5, p Cl-Phe^4)-ENK (0.1 nM. 10 nM. 1 μM).
The inventors (Heagy et al., 1992) have previously shown that when applied to NALM 6 cells the κ-1 agonist U69,953 stimulates a rapid increase in [Ca^2+ ]i. […] In order to determine whether the sites the inventors have identified using the δ-selective agonists also elicit Ca^2+ responses the inventors measured the effects of opioid peptides and δ-selective agonists on the calcium response. […] These studies provide evidence that Jurkat cells have functional δ opiate receptor sites which stimulate transmembrane signaling via rapid increases in [Ca^2+ ]i.

[6] = target: EBI1, novel lymphocyte R7G opioid binding protein (human); assay: radioligand filtration assay on membranes of EBI1-transfected COS cells; nonspecific binding with 50 µM naloxone
[7] = target: NALM 6 cells (pre-B acute lymphoblastic leukemia cell line), enkephalin/opiate binding sites not defined as a molecule; assay: flow cytometry of MET-ENK-FITC on NALM 6 cells, two-site model, high affinity site
[8] = target: Jurkat cells (T cell leukemia cell line), enkephalin/opiate binding sites not defined as a molecule; assay: flow cytometry of MET-ENK-FITC on Jurkat cells, two-site model, low affinity site
[9] = target: NALM 6 cells (pre-B acute lymphoblastic leukemia cell line), enkephalin/opiate binding sites not defined as a molecule; assay: flow cytometry of MET-ENK-FITC on NALM 6 cells, two-site model, low affinity site
[10] = target: Jurkat cells (T cell leukemia cell line), enkephalin/opiate binding sites not defined as a molecule; assay: flow cytometry of MET-ENK-FITC on Jurkat cells, two-site model, high affinity site

## CC(C)C[C@@H](NC(=O)[C@H](Cc1ccccc1)NC(=O)CNC(=O)[C@@H](C)NC(=O)[C@@H](N)Cc1ccc(O)cc1)C(=O)O [DADLE, [D-Ala^2,D-Leu5]-enkephalin]
NALM 6 cells
  cell migration (cell counts): 6240 cell counts
  concentration inducing migration: ≤ 10^-10 M
  effect on migration of pre-B ALL cells: enhanced, albeit modestly, the migration of NALM 6 and LAZ 221 cells
LAZ 221 cells
  cell migration (cell counts): 4405 cell counts
Jurkat cells [1]
  specific binding, % of total: 50-60%
Human T cells [2]
  human T cell migration: potent stimulants for the migration of isolated human T cells
LAZ 388 cells
  cell migration (cell counts): 2283 cell counts

## C[C@@H](NC(=O)[C@@H](N)Cc1ccc(O)cc1)C(=O)NCC(=O)N(C)[C@@H](Cc1ccccc1)C(=O)NCCO [DAMGO, [D-Ala^2, Me-Phe^4, Gly(ol)^5]-enkephalin]
NALM 6 cells
  cell migration (cell counts): 5070 cell counts
  concentration inducing migration: ≤ 10^-10 M
  effect on migration of pre-B ALL cells: enhanced, albeit modestly, the migration of NALM 6 and LAZ 221 cells
LAZ 221 cells
  cell migration (cell counts): 4602 cell counts
Human T cells [2]
  human T cell migration: potent stimulants for the migration of isolated human T cells
LAZ 388 cells
  cell migration (cell counts): 2043 cell counts

## CSCC[C@H](NC=O)C(=O)N[C@@H](CC(C)C)C(=O)N[C@@H](Cc1ccccc1)C(=O)O [FMLP]
NALM 6 cells
  cell migration (cell counts): 3198 cell counts
  effect on migration of pre-B ALL cells: had no effect on the migration of the pre-B ALL cells
LAZ 221 cells
  cell migration (cell counts): 2906 cell counts
LAZ 388 cells
  cell migration (cell counts): 1914 cell counts

## C=C[C@@]1(C)CC(=O)[C@]2(O)[C@@]3(C)[C@@H](O)CCC(C)(C)[C@@H]3[C@H](O)[C@H](OC(C)=O)[C@@]2(C)O1 [Forskolin]
COS (Vector Control)
  cAMP: 130.5 fmoles/cell × 10^3
EBI1
  cAMP: 234.8 fmoles/cell × 10^3

## CC(C)C[C@H](NC(=O)[C@H](Cc1ccccc1)NC(=O)CNC(=O)CNC(=O)[C@@H](N)Cc1ccc(O)cc1)C(=O)O [LEU-ENK]
Human T cells [3]
  human lymphocyte / T cell migration: stimulate human lymphocyte migration
Human T cells [3]; human peripheral blood T cells
  lowest concentration at which T cell migration was detectable: 0.1 pM

## CN1CC[C@]23c4c5ccc(O)c4O[C@H]2[C@@H](O)C=C[C@H]3[C@H]1C5 [morphine]
[4]
  lymphocyte trafficking in vivo: enhance lymphocyte trafficking
leukocytes
  leukocyte changes in rabbits: caused a leukocytosis in parallel with a depletion of lymphocyte blasts and other hematopoietic precursors in the bone marrow

## (D-Pen^2,5, p-Cl-Phe^4)-ENK
Jurkat cells [5]
  [Ca^2+ ]i response: stimulated the Ca^2+ response
  concentration eliciting [Ca^2+ ]i response: 10^-8 to 10^-6 M

## DPDPE ([D-Pen2,5]enkephalin), delta-selective opiate receptor agonist (peptide)
[6]
  Kd: 0.2 nM

## fluorescein derivative of methionine enkephalin (MET-ENK-FITC) (peptide)
[7]
  Kd: 1.01 nM
[8]
  Kd: 181 nM
[9]
  Kd: 318 nM
[10]
  Kd: 1.36 nM
